Reference: US12617779B2, “Self degradation-type CDK9 inhibitor prodrug and liposome encapsulating same” (Sumitomo Pharma Co., Ltd., priority 2021, dated 2026)

Assay: Liposome encapsulation test, remote loading method (Experimental Example 4);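 on Encapsulation efficiency: encapsulated compound as percent of compound amount introduced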
Type: physicochemical
Settings: Compound concentration when encapsulated 10 mg/mL
Method: For Example 1, Example 2, Example 3, Example 4, Example 5, Example 6, Example 7, Example 8, Example 9, Example 10, Example 11, Example 12, Example 13, Example 14, Example 15, Example 16, Example 17 and Alvocidib, an encapsulation test in liposomes was performed using a remote loading method.
<Liposome Encapsulation Test of Example 1, Example 2, Example 5, Example 6, Example 9, Example 10, Example 11, Example 12, Example 13, Example 14, Example 15, and Example 16>
Hydrogenated soybean phosphatidylcholine (COATSOME NC-21E, manufactured by NOF CORPORATION, 7.77 g), cholesterol (manufactured by Sigma, 2.78 g) and distearoylphosphatidylethanolamine-methoxypolyethylene glycol 2000 (SUNBRIGHT DSPE-020CN, manufactured by NOF CORPORATION, 2.47 g) were dissolved in tert-butyl alcohol (720 mL) warmed to 65° C. The solution was placed in an eggplant flask and frozen in a dry ice-acetone bath, and then the tert-butyl alcohol was removed by evaporation under reduced pressure to give a lipid mixture.
To the above lipid mixture was added a 250 mM ammonium sulfate solution (240 mL), and the mixture was warmed to 65° C., and dispersed by a homogenizer (ULTRA-TURRAX, manufactured by IKA) to give a crude liposome dispersion. Then, the crude liposome dispersion was dispersed by a high pressure homogenizer (Nano-Mizer NM2, manufactured by YOSHIDA KIKAI CO., LTD.) at a pressure of 100 MPa to give liposomes with an average particle size (Z-average) of about 80 nm. The liposome outer solution was replaced with 10 mM L-histidine/10% sucrose solution (pH 6.5) using a dialysis cassette (Slide-A-Lyzer G2 Dialysis Cassettes 20K MWCO, manufactured by Thermo Scientific) to give an empty liposome solution. The solution was filtered through a 0.22 μm membrane filter, and a 10 mM L-histidine/10% sucrose solution (pH 6.5) was added thereto to adjust the total lipid concentration to 50 mM (50 μmol/mL). The lipid concentration was determined by quantitatively analyzing cholesterol using HPLC and calculating the total lipid concentration from the lipid mixing ratio. The amount for the above adjustment was increased or decreased as appropriate.
The compound (10 mg) was weighed, and the empty liposome solution (1 mL) with a total lipid concentration of 50 mM was added thereto. The solution was adjusted to pH 5 to 6 with 1 mol/L hydrochloric acid or 1 mol/L aqueous sodium hydroxide solution as necessary, warmed in a 65° C. water bath for 2 to 3 minutes, and ice-cooled. The mixture was centrifuged at 15,000×g for 5 minutes to precipitate and remove insoluble substances.
The liposome solution (100 μL) after removing insoluble substances was taken on an ultrafiltration filter (Amicon Ultra, 100K, 0.5 mL, manufactured by Merck) and centrifuged at 4° C., 15,000×g for 10 minutes. The compound concentrations in the liposome solution after removing insoluble substances and in the filtrate after ultrafiltration were determined by HPLC, and the encapsulation rate, encapsulation efficiency, and encapsulated compound content per 50 μmol of lipid were calculated by the following formula.
The measurement conditions for HPLC are as follows.
An empty liposome solution with a total lipid concentration of 75 mM was prepared by the same procedure as for the above example compound group. Each compound was weighed, and the empty liposome solution with a total lipid concentration of 75 mM was added thereto such that the compound concentration became 15 mg/mL. The solution was adjusted to pH 5 to 6 with 1 mol/L hydrochloric acid or 1 mol/L aqueous sodium hydroxide solution, warmed in a 65° C. water bath for 3 minutes, and ice-cooled. Hereafter, the encapsulation rate and encapsulation efficiency were calculated by the same procedure as for the above example compound group. The encapsulated compound content per 50 μmol of lipid was calculated by the following formula.
[formula] <Liposome Encapsulation Test of Example 7, Example 8 and Example 17> […]

Row | SMILES | Encapsulated compound content per 50 μmol of lipid | Encapsulation efficiency | Encapsulation rate
1 | CN1CC[C@H](c2c(OC(=O)N(Cc3ccccc3)CC3CCCCN3)cc(O)c3c(=O)cc(-c4ccccc4Cl)oc23)[C@H](O)C1 (stereo partly drawn) [Example 15, 2-(2-chlorophenyl)-5-hydroxy-8-[(3S,4R)-3-hydroxy-1-methylpiperidin-4-yl]-4-oxo-4H-1-benzopyran-7-yl benzyl [(piperidin-2-yl)methyl]carbamate] | 2.2 mg | 22.2% | 23.6%
2 | CCN(CCC1CCCCN1)C(=O)Oc1cc(O)c2c(=O)cc(-c3ccccc3Cl)oc2c1[C@H]1CCN(C)C[C@H]1O (stereo partly drawn) [Example 16, 2-(2-chlorophenyl)-5-hydroxy-8-[(3S,4R)-3-hydroxy-1-methylpiperidin-4-yl]-4-oxo-4H-1-benzopyran-7-yl ethyl[2-(piperidin-2-yl)ethyl]carbamate] | 2.2 mg | 21.7% | 20.7%
